Laboratory results published in ChEMBL document CHEMBL4152339, “Design and synthesis of novel 1H-tetrazol-5-amine based potent antimicrobial agents: DNA topoisomerase IV and gyrase affinity evaluation supported by molecular docking studies” (Eur J Med Chem, 2018).
pIC50: −log10 of the molar value. ≈ marks a conversion by molar mass, not a printed value.

Columns and labels:
[1] = tested on: Staphylococcus aureus; assay: Antibacterial activity against Staphylococcus aureus NCTC 4163 after 18 hrs by CLSI disc diffusion method; type: functional; settings: NCTC 4163, 18 h
[2] = tested on: Staphylococcus aureus; assay: Antibacterial activity against Staphylococcus aureus ATCC 25923 after 18 hrs by CLSI disc diffusion method; type: functional; settings: ATCC 25923, 18 h
[3] = tested on: Staphylococcus aureus; assay: Antibacterial activity against Staphylococcus aureus ATCC 6538 after 18 hrs by CLSI disc diffusion method; type: functional; settings: ATCC 6538, 18 h
[4] = tested on: Staphylococcus epidermidis; assay: Antibacterial activity against Staphylococcus epidermidis ATCC 12228 after 18 hrs by CLSI disc diffusion method; type: functional; settings: ATCC 12228, 18 h
[5] = tested on: Staphylococcus epidermidis; assay: Antibacterial activity against Staphylococcus epidermidis ATCC 35984 after 18 hrs by CLSI […] method; type: functional; settings: ATCC 35984, 18 h
[6] = tested on: Bacillus spizizenii; assay: Antibacterial activity against Bacillus subtilis ATCC 6633 after 18 hrs by CLSI disc diffusion method; type: functional; settings: ATCC 6633, 18 h
[7] = tested on: Bacillus cereus; assay: Antibacterial activity against Bacillus cereus ATCC 11778 after 18 hrs by CLSI disc diffusion method; type: functional; settings: ATCC 11778, 18 h
[8] = tested on: Enterococcus hirae; assay: Antibacterial activity against Enterococcus hirae ATCC 10541 after 18 hrs by CLSI disc diffusion method; type: functional; settings: ATCC 10541, 18 h
[9] = tested on: Enterococcus faecalis; assay: Antibacterial activity against Enterococcus faecalis ATCC 29212 after 18 hrs by CLSI disc diffusion method; type: functional; settings: ATCC 29212, 18 h
[10] = tested on: Micrococcus luteus; assay: Antibacterial activity against Micrococcus luteus ATCC 10240 after 18 hrs by CLSI disc diffusion method; type: functional; settings: ATCC 10240, 18 h
[11] = tested on: Micrococcus luteus; assay: Antibacterial activity against Micrococcus luteus ATCC 9341 after 18 hrs by CLSI disc diffusion method; type: functional; settings: ATCC 9341, 18 h
[12] = tested on: Escherichia coli; assay: Antibacterial activity against Escherichia coli ATCC 10538 after 18 hrs by CLSI disc diffusion method; type: functional; settings: ATCC 10538, 18 h
[13] = tested on: Proteus vulgaris; assay: Antibacterial activity against Proteus vulgaris NCTC 4635 after 18 hrs by CLSI disc diffusion method; type: functional; settings: NCTC 4635, 18 h
[14] = tested on: Pseudomonas aeruginosa; assay: Antibacterial activity against Pseudomonas aeruginosa ATCC 15442 after 18 hrs by CLSI disc diffusion method; type: functional; settings: ATCC 15442, 18 h
[15] = tested on: Pseudomonas aeruginosa; assay: Antibacterial activity against Pseudomonas aeruginosa ATCC 27853 after 18 hrs by CLSI disc diffusion method; type: functional; settings: ATCC 27853, 18 h
[16] = tested on: Bordetella bronchiseptica; assay: Antibacterial activity against Bordetella bronchiseptica ATCC 4617 after 18 hrs by CLSI disc diffusion method; type: functional; settings: ATCC 4617, 18 h
[17] = tested on: A549; assay: Cytotoxicity activity against human A549 cells assessed as reduction in cell viability after 72 hrs by MTT assay; type: cell-based; settings: A549, 72 h
[18] = tested on: HaCaT; assay: Cytotoxicity activity against human HaCaT cells assessed as reduction in cell viability after 72 hrs by MTT assay; type: cell-based
[19] = Selectivity index, ratio of IC50 for human HaCaT cells to MIC for Staphylococcus aureus NCTC 4163; type: toxicity; settings: read-out: Selectivity Index
[20] = Selectivity index, ratio of IC50 for human HaCaT cells to MIC for Bacillus subtilis ATCC 6633; type: toxicity; settings: read-out: Selectivity Index
[21] = Selectivity index, ratio of IC50 for human HaCaT cells to MIC for Enterococcus hirae ATCC 10541; type: toxicity; settings: read-out: Selectivity Index
[22] = Selectivity index, ratio of IC50 for human HaCaT cells to MIC for Micrococcus luteus ATCC 10240; type: toxicity; settings: read-out: Selectivity Index
[23] = Selectivity index, ratio of IC50 for human HaCaT cells to MIC for Escherichia coli ATCC 10538; type: toxicity; settings: read-out: Selectivity Index
[24] = Selectivity index, ratio of IC50 for human HaCaT cells to MIC for Proteus vulgaris NCTC 4635; type: toxicity; settings: read-out: Selectivity Index
[25] = Selectivity index, ratio of IC50 for human HaCaT cells to MIC for Bordetella bronchiseptica ATCC 4617; type: toxicity; settings: read-out: Selectivity Index

SMILES	MIC [1] [µM]	MIC [2] [µM]	MIC [3] [µM]	MIC [4] [µM]	MIC [5] [µM]	MIC [6] [µM]	MIC [7] [µM]	MIC [8] [µM]	MIC [9] [µM]	MIC [10] [µM]	MIC [11] [µM]	MIC [12] [µM]	MIC [13] [µM]	MIC [14] [µM]	MIC [15] [µM]	MIC [16] [µM]	pIC50 [17]	pIC50 [18]	selectivity ratio [19]	selectivity ratio [20]	other results
CCn1nnnc1NCCc1c[nH]c2ccccc12	> 999	> 999	> 999	999 (≈ 256 µg/mL)	999 (≈ 256 µg/mL)	999 (≈ 256 µg/mL)	999 (≈ 256 µg/mL)	999 (≈ 256 µg/mL)	999 (≈ 256 µg/mL)	999 (≈ 256 µg/mL)	999 (≈ 256 µg/mL)	999 (≈ 256 µg/mL)	999 (≈ 256 µg/mL)	999 (≈ 256 µg/mL)	999 (≈ 256 µg/mL)	999 (≈ 256 µg/mL)	–	–	–	–	–
Clc1ccc(-n2nnnc2Nc2nccs2)cc1Cl	103 (≈ 32.3 µg/mL)	51 (≈ 16 µg/mL)	51 (≈ 16 µg/mL)	51 (≈ 16 µg/mL)	26 (≈ 8.14 µg/mL)	6 (≈ 1.88 µg/mL)	26 (≈ 8.14 µg/mL)	205 (≈ 64.2 µg/mL)	103 (≈ 32.3 µg/mL)	51 (≈ 16 µg/mL)	26 (≈ 8.14 µg/mL)	821 (≈ 257 µg/mL)	821 (≈ 257 µg/mL)	821 (≈ 257 µg/mL)	821 (≈ 257 µg/mL)	410 (≈ 128 µg/mL)	–	–	–	–	–
Fc1ccc(-n2nnnc2NCCc2c[nH]c3ccccc23)cc1	50 (≈ 16.1 µg/mL)	12 (≈ 3.87 µg/mL)	25 (≈ 8.06 µg/mL)	50 (≈ 16.1 µg/mL)	12 (≈ 3.87 µg/mL)	12 (≈ 3.87 µg/mL)	6 (≈ 1.93 µg/mL)	25 (≈ 8.06 µg/mL)	50 (≈ 16.1 µg/mL)	12 (≈ 3.87 µg/mL)	12 (≈ 3.87 µg/mL)	25 (≈ 8.06 µg/mL)	12 (≈ 3.87 µg/mL)	397 (≈ 128 µg/mL)	397 (≈ 128 µg/mL)	12 (≈ 3.87 µg/mL)	–	–	–	–	–
Fc1ccc(-n2nnnc2Nn2cnnc2)cc1Cl	14 (≈ 3.93 µg/mL)	29 (≈ 8.14 µg/mL)	14 (≈ 3.93 µg/mL)	29 (≈ 8.14 µg/mL)	14 (≈ 3.93 µg/mL)	57 (≈ 16 µg/mL)	29 (≈ 8.14 µg/mL)	29 (≈ 8.14 µg/mL)	114 (≈ 32 µg/mL)	57 (≈ 16 µg/mL)	57 (≈ 16 µg/mL)	57 (≈ 16 µg/mL)	57 (≈ 16 µg/mL)	914 (≈ 257 µg/mL)	> 914	> 914	4.22	4.21	4.42	1.08	selectivity ratio [21]: 2.13; selectivity ratio [22]: 1.08; selectivity ratio [23]: 1.08; selectivity ratio [24]: 1.08; selectivity ratio [25]: 0.07
Fc1ccc(-n2nnnc2Nc2nccs2)cc1Cl	108 (≈ 32 µg/mL)	108 (≈ 32 µg/mL)	108 (≈ 32 µg/mL)	27 (≈ 8.01 µg/mL)	14 (≈ 4.15 µg/mL)	14 (≈ 4.15 µg/mL)	14 (≈ 4.15 µg/mL)	27 (≈ 8.01 µg/mL)	54 (≈ 16 µg/mL)	27 (≈ 8.01 µg/mL)	14 (≈ 4.15 µg/mL)	> 865	> 865	> 865	> 865	> 865	4.22	4.22	0.55	4.28	selectivity ratio [21]: 2.22; selectivity ratio [22]: 2.22; selectivity ratio [23]: 0.07; selectivity ratio [24]: 0.07; selectivity ratio [25]: 0.07
O=[N+]([O-])c1cc(-n2nnnc2Nc2nc[nH]n2)ccc1Cl	208 (≈ 64 µg/mL)	208 (≈ 64 µg/mL)	208 (≈ 64 µg/mL)	104 (≈ 32 µg/mL)	52 (≈ 16 µg/mL)	52 (≈ 16 µg/mL)	26 (≈ 8 µg/mL)	208 (≈ 64 µg/mL)	208 (≈ 64 µg/mL)	52 (≈ 16 µg/mL)	52 (≈ 16 µg/mL)	417 (≈ 128 µg/mL)	208 (≈ 64 µg/mL)	834 (≈ 257 µg/mL)	834 (≈ 257 µg/mL)	417 (≈ 128 µg/mL)	–	–	–	–	–
O=C(O)n1nnnc1NCCc1c[nH]c2ccccc12	59 (≈ 16.1 µg/mL)	15 (≈ 4.08 µg/mL)	15 (≈ 4.08 µg/mL)	29 (≈ 7.9 µg/mL)	15 (≈ 4.08 µg/mL)	15 (≈ 4.08 µg/mL)	7 (≈ 1.91 µg/mL)	29 (≈ 7.9 µg/mL)	59 (≈ 16.1 µg/mL)	15 (≈ 4.08 µg/mL)	15 (≈ 4.08 µg/mL)	29 (≈ 7.9 µg/mL)	15 (≈ 4.08 µg/mL)	471 (≈ 128 µg/mL)	471 (≈ 128 µg/mL)	29 (≈ 7.9 µg/mL)	–	–	–	–	–
O=[N+]([O-])c1ccc(-n2nnnc2Nn2cnnc2)cc1	7 (≈ 1.91 µg/mL)	7 (≈ 1.91 µg/mL)	7 (≈ 1.91 µg/mL)	4 (≈ 1.09 µg/mL)	4 (≈ 1.09 µg/mL)	29 (≈ 7.92 µg/mL)	29 (≈ 7.92 µg/mL)	29 (≈ 7.92 µg/mL)	234 (≈ 63.9 µg/mL)	59 (≈ 16.1 µg/mL)	59 (≈ 16.1 µg/mL)	117 (≈ 32 µg/mL)	117 (≈ 32 µg/mL)	938 (≈ 256 µg/mL)	938 (≈ 256 µg/mL)	117 (≈ 32 µg/mL)	4.22	4.19	9.28	2.24	selectivity ratio [21]: 2.24; selectivity ratio [22]: 1.1; selectivity ratio [23]: 0.55; selectivity ratio [24]: 0.55; selectivity ratio [25]: 0.55
Fc1ccc(-n2nnnc2Nn2cnnc2)cc1	65 (≈ 16 µg/mL)	65 (≈ 16 µg/mL)	33 (≈ 8.12 µg/mL)	33 (≈ 8.12 µg/mL)	16 (≈ 3.94 µg/mL)	65 (≈ 16 µg/mL)	65 (≈ 16 µg/mL)	65 (≈ 16 µg/mL)	8 (≈ 1.97 µg/mL)	2 (≈ 0.492 µg/mL)	2 (≈ 0.492 µg/mL)	16 (≈ 3.94 µg/mL)	8 (≈ 1.97 µg/mL)	1040 (≈ 256 µg/mL)	1040 (≈ 256 µg/mL)	130 (≈ 32 µg/mL)	4.10	4.08	1.29	1.29	selectivity ratio [21]: 2.89; selectivity ratio [22]: 1.47; selectivity ratio [23]: 1.47; selectivity ratio [24]: 1.47; selectivity ratio [25]: 0.09
FC(F)(F)c1ccc(-n2nnnc2Nc2nccs2)cc1	51 (≈ 15.9 µg/mL)	26 (≈ 8.12 µg/mL)	51 (≈ 15.9 µg/mL)	13 (≈ 4.06 µg/mL)	6 (≈ 1.87 µg/mL)	26 (≈ 8.12 µg/mL)	26 (≈ 8.12 µg/mL)	51 (≈ 15.9 µg/mL)	51 (≈ 15.9 µg/mL)	51 (≈ 15.9 µg/mL)	6 (≈ 1.87 µg/mL)	411 (≈ 128 µg/mL)	411 (≈ 128 µg/mL)	411 (≈ 128 µg/mL)	411 (≈ 128 µg/mL)	205 (≈ 64 µg/mL)	4.12	4.10	1.56	3.07	selectivity ratio [21]: 1.56; selectivity ratio [22]: 1.56; selectivity ratio [23]: 0.19; selectivity ratio [24]: 0.19; selectivity ratio [25]: 0.39
Brc1ccc(-n2nnnc2Nn2cnnc2)cc1	52 (≈ 16 µg/mL)	52 (≈ 16 µg/mL)	52 (≈ 16 µg/mL)	26 (≈ 7.98 µg/mL)	13 (≈ 3.99 µg/mL)	26 (≈ 7.98 µg/mL)	26 (≈ 7.98 µg/mL)	52 (≈ 16 µg/mL)	52 (≈ 16 µg/mL)	26 (≈ 7.98 µg/mL)	26 (≈ 7.98 µg/mL)	52 (≈ 16 µg/mL)	13 (≈ 3.99 µg/mL)	834 (≈ 256 µg/mL)	834 (≈ 256 µg/mL)	209 (≈ 64.2 µg/mL)	4.21	4.19	1.25	2.5	selectivity ratio [21]: 1.25; selectivity ratio [22]: 2.5; selectivity ratio [23]: 1.25; selectivity ratio [24]: 5; selectivity ratio [25]: 0.31
COc1cccc2c1C(=O)c1c(O)c3c(c(O)c1C2=O)C[C@@](O)(C(=O)CO)C[C@@H]3O[C@H]1C[C@H](N)[C@H](O)[C@H](C)O1 [DOXORUBICIN]	–	–	–	–	–	–	–	–	–	–	–	–	–	–	–	–	6.20	5.96	–	–	–
